“Also recorded” adds a separate entry of the source. Square brackets hold non-standard residues; d marks the D form. pGlu = O=C1CC[C@@H](C(=O)O)N1
How the values were obtained:
[1] = In vivo assessment of erythropoietic activity, 28 days i.v. in rats; parameters: species or system Sprague Dawley rats; settings: 0, 60, 180, 600 μg/kg per dose i.v. twice a day for 28 days; blood on day 29; FIG. 2
Experimental: To evaluate the erythropoietic activity of tissue protective peptides and peptide analogs, Peptide ID was administered intravenously twice a day to Sprague Dawley rats for 28 days. Nine male and nine female rats were assigned to groups 1-4 receiving 0, 60, 180, and 600 μg/kg per dose (0, 48, 143, and 477 nmol/kg, respectively) of Peptide ID in PBS by bolus intravenous administration from days 1-28, Blood samples to assay for hematological variables were collected on day 29. Hemoglobin concentration was determined by use of an automated analyzer (Keska Corporation).

bilateral renal ischemia = test: Bilateral renal ischemia assay; assay type: in vivo, C57/BL6 mice
Experimental: Sixty male C57/BL6 mice (˜25 g; Charles River Laboratories) were anesthetized with ketamine (150 mg/kg) and xylazine (15 mg/kg) i.p. Each animal was placed on a homeothermic blanket set at 37° C., and after a mid-line laparotomy, the renal pedicles were clamped for 30 minutes using nontraumatic vascular clamps. Peptide ID was administered at the indicated dose via i.p. Injection at 1 minute, 6 hours, and 12 hours after reperfusion. In a single dose study, the mice received a control (PBS), 1 μg/kg of Peptide IG at 1 minute, 1 μg/kg of Peptide IG at 30 minutes, 1 μg/kg of Peptide ID at 6 hours, or 10 μg/kg of Peptide ID at 6 hours (12 mice per group). In a multiple dose study, the mice received either multiple doses of a control (PBS), 0.1 μg/kg of Peptide ID, 1 μg/kg of Peptide ID, or 10 μg/kg of Peptide ID at 1 minute, 6 hours and 12 hours into reperfusion.
Twenty-four hours later, mice were reanesthetized and blood was obtained by cardiac puncture. Plasma urea and creatine were used as indicators of renal dysfunction and aspartate aminotransferase was used as an indicator of renal injury. Data were analyzed using ANOVA followed by Dunnett's post hoc test comparison.

9 L gliosarcoma cells = test: 9 L gliosarcoma implantation model, delayed treatment; assay type: in vivo, CD Fisher rats
Experimental: In accordance with the accordance with the protocol of Lampson et al. Cancer Res. 53:176-82:1993 described above, CD Fisher rats were implanted with 9 L gliosarcoma cells transfected with the LacZ gene by use of a Hamilton syringe. 100,000 cells in 10 microliters were injected into the right caudate.
ID with a short plasma half life, another receiving Peptide IW (pegylated form of Peptide IC) and the third group received saline. Peptides were given at a dose of 25 nmole/kg body weight. Three weeks later, the animals were sacrificed and serial 1 mm thick coronal sections cut through the brain and incubated with 5-bromo-4-chloro-3-indolyl-[beta]-D-galactopyranoside (Xgal). Tumor cells (containing the LacZ gene) metabolized Xgal into a dark blue stain, localizing the extent of tumor. High resolution digital images were obtained and the areas stained blue determined using planimetric methodology. Data is expressed as total area of tumor infiltration.

histamine = test: Histamine induced ear inflammation; assay type: in vivo, Sprague Dawley rats; settings: 30 μg/kg IV; 15, 30, 45 and sixty minutes; versus saline; FIG. 15
Experimental: The ability of peptides useful in the current therapeutic method to antagonize the pro-inflammatory affects of histamine were evaluated in a mouse model of histamine-induced edema disclosed in Brand et al. “Tea tree oil reduces histamine-induced oedema in murine ears,” Inflamm. Res. 51 (2002) 283-289. Briefly, 24 Sprague Dawley rats (male, 250 gm) were used in the study. Prior to the histamine challenge, each rat was anesthetized and the thickness of the rat's ear was measured using a spring loaded micrometer. 20 ul of 60 mg/ml solution of histamine diphosphate was injected intradermally into an ear of the rat and 30 seconds later the rat received either (1) 30 μg/kg Peptide ID IV (12 rats) or (2) Saline IV (12 rats). Then 20 ul of 60 mg/ml solution of histamine diphosphate was injected intradermally to the rat's other ear. The thickness of the rats ears was then measured using a caliper at 15, 30, 45 and sixty minutes following the histamine challenge.

pressure ulcer = test: Decubitus ulcer (pressure sore) assay; assay type: in vivo, Sprauge-Dawley rats; settings: FIG. 20
Experimental: A decubitus ulcer (pressure sore) assay was performed on 24 adult Sprauge-Dawley rats in accordance with the disclosure of Pierce et al., Selective A2A adenosine receptor activation reduces skin pressure ulcer formation and inflammation, Am J Physiol Heart Circ Physiol 281:67-74, 2001. Briefly, a ferromagnetic steel plate was implanted under a dorsal region of the rats skin. A rectangular permanent magnet was applied to the area of the skin under which the plate was implanted in order to compress the skin between the plate and the magnet. This compression reduced the flow of blood to the skin causing ischemia. The rats were subjected to a cycle of ischemia-reperfusion (2 hours ischemia with a 0.5 hour reperfusion) for a 72-hour period. […] Daily the area of the wound on each rat was measured for a period of 12 days.

[2] = tested on: partial body irradiation of 15 Gy; test: Radiomitigating activity in a gastrointestinal screening assay; assay type: in vivo, C57BL/6 mice; settings: 15 mice per group, 30 ug/kg subcutaneously from 24 hours, once a day, FIG. 22
Experimental: The ability of peptides useful in the current therapeutic method to mitigate the effects of a radioactive agent on the gastrointestinal system was evaluated in a murine model of radiation injury. Briefly, 30 C57BL/6 mice (male, 20-30 gm) were used in the study.
The radiation was administered to the mice using a Pantak HF320 X-ray (Agfa NDT Ltd., Reading, UK), operated at 300 kV, 10 mA. The X-ray tube has additional filtration to give a radiation quality of 2.3 mm Cu half-value layer (HVL). Mice had their head, thorax, and forelimbs shielded to protect their bone marrow and select for the GI response. The mice were restrained in a jig and positioned at a distance of 700 mm focus from the focus of the X-ray tube. Irradiation was delivered at a dose rate of 75.5 cGy/min (unshielded) and 70.0 cGy/min (shielded) for a period sufficient to expose the mice to 15 Gy of radiation.
At 24 hours following radiation, 15 of the mice were administered Peptide ID (30 ug/kg subcutaneously) and then once a day for the duration of the study and remaining 15 mice (control group) received PBS (subcutaneously) and then once a day for the duration of the study.
The mice were weighed and monitored once a day until signs of diarrhea and early euthanasia appeared, then twice a day.

Sequence: UEQLERALNSS ([pGlu]EQLERALNSS-OH; also: acetate/ammonium mixed salt) [Peptide ID, first glutamine replaced with pyroglutamate]
- hemoglobin concentration [1]: no difference in any of the groups
- creatinine, urea and aspartate aminotransferase (biochemical markers of renal dysfunction) (bilateral renal ischemia; multiple doses 1 μg/kg at 1 minute, 6 hours and 12 hours into reperfusion, FIG. 7): reduction in these biochemical markers of renal dysfunction
- creatinine, urea and aspartate aminotransferase (biochemical markers of renal dysfunction) (bilateral renal ischemia; multiple doses 10 μg/kg at 1 minute, 6 hours and 12 hours into reperfusion, FIG. 7): reduction in these biochemical markers of renal dysfunction
- creatinine, urea and aspartate aminotransferase (biochemical markers of renal dysfunction) (bilateral renal ischemia; single dose 1 μg/kg at 6 hours into reperfusion, 24 hrs of reperfusion, FIG. 6): reduction in these biochemical markers of renal dysfunction
- creatinine, urea and aspartate aminotransferase (biochemical markers of renal dysfunction) (bilateral renal ischemia; single dose 10 μg/kg at 6 hours into reperfusion, 24 hrs of reperfusion, FIG. 6): reduction in these biochemical markers of renal dysfunction
- tumor size (total area of tumor infiltration) (9 L gliosarcoma cells; 25 nmole/kg i.p. daily starting two weeks after implantation, three weeks, FIG. 13, 14): smaller than the saline group, it was not significantly different; also recorded: reduced the size of tumor
- tumor size (9 L gliosarcoma cells; daily treatment begun immediately after implantation, FIG. 14): substantially smaller tumors; also recorded: reduction in size of the tumor
- ear thickness (edema) after histamine challenge (histamine): reduced the amount of edema; also recorded: less inflammation
- wound (ulcer) size (area) (pressure ulcer; 30 μg/kg sc daily, compared with all groups): smallest wound size
- wound (ulcer) size (area) (pressure ulcer; Peptide ID 30 μg/kg sc twice or daily, EPO daily, 12 days, versus saline): reduced the size of the wound; also recorded: better wound healing
- number of mice surviving to day 20 [2]: 6 mice

Source: patent US9580465B2, “Tissue protective peptides and peptide analogs for preventing and treating diseases and disorders associated with tissue damage” (ARAIM PHARMACEUTICALS, INC., priority 2008, dated 2017)
